Assay results reported in patent US11166940B2, “Treatment of cardiac disorders by blocking SK4 potassium channel” (Ramot at Tel-Aviv University Ltd., priority 2016, dated 2021).

Key:
SAN cells = assay: Spontaneous APs / pacing rate of isolated SAN cells from WT mice (patch clamp); type: cell-based, mouse; conditions: 50 nM isoproterenol
Protocol: (§1) WT and CASQ2 D307H KI mice were anesthetized with isofluorane and sacrificed by cervical dislocation. The heart was rapidly removed and transferred into Tyrode solution containing heparin. […] The area was cleaned, cut into small strips and washed into a Low Calcium Solution, containing (in mM): 140 NaCl, 5.4 KCl, 0.5 MgCl2, 1.2 KH2PO4, 5 HEPES-NaOH, 50 taurine, 5.5 glucose (pH 6.9). The osmolarity was adjusted if needed to 315 mOsm.
The same solution, supplemented with 1 mg/ml albumin, 200 μM CaCl2, collagenase Type I (Worthington) or liberase TH (Roche), protease (Sigma) and elastase (Sigma) was used for enzymatic digestion as previously described [See, Mesirca, P., et al. Nat Commun 5, 4664 (2014)]. In this step, the tissue was gently resuspended with a polished Pasteur pipette in this solution for 9-13 minutes at 37° C. SAN samples were then washed three times in a modified “Kraftbrühe” solution, containing (in mM): 70 glutamic acid, 80 KOH, 20 KCl, 10 γ-Hydroxybutyric acid sodium salt, 10 KH2PO4, 10 HEPES-KOH, 10 taurine, 1 mg/ml albumin, 0.1 EGTA-KOH (pH 7.2). The same solution was used to re-suspend the single cells with a pipet by vigorous up and down, between 3 to 5 minutes at 37° C. Cells were then gradually exposed to increasing concentrations of calcium, following a “Ca^2+ readaptation” protocol [Mesirca et al., 2014, supra]. Experiments were performed the same day at 33° C.
(§2) In all experiments, the coverslips were perfused at 33° C. with an external solution containing (in mM): 140 NaCl, 4 KCl, 11 Glucose, 1.2 MgCl2, 1.8 CaCl2, 5.5 HEPES titrated to pH 7.4 with NaOH and adjusted at 320 mOsm with sucrose.
The spontaneous automaticity of isolated SAN cells was recorded under perforated-patch conditions by adding 30 μM β-escin49 to the intracellular solution containing (in mM): 130 KCl, 10 NaCl, 10 HEPES, 0.2 EGTA-KOH, 2 MgATP, 6.6 Phosphocreatine, 0.05 cAMP and 1 μM free Ca^2+ (pH 7.2). To record SK4 K+ current, a voltage ramp protocol was applied. SAN and hiPS-CMs were held at −40 mV and −20 mV, respectively to substantially inactivate voltage-gated Na^+ and Ca^2+ currents. Cells were stepped from −90 mV to +60 mV for 150 ms. Then, a cocktail (solution 1) containing (in mM) 0.3 cadmium, 0.025 ZD-7288 and 0.01 E-4031 was applied extracellularly to inhibit residual L-type and T-type voltage-gated Ca2+ currents, If and the IKr currents, respectively. […] For voltage-clamp recording of SAN cells, the intracellular solution was the same to that described above for recording spontaneous automaticity.
The spontaneous electric activity of the cell was recorded in the current clamp configuration of the patch clamp technique before (black trace) and during (violet trace) exposure to 2 μM clotrimazole.
FIG. 5E (Left) presents representative traces of spontaneous APs recorded in single SAN cell from WT mice.

[1] = system: SAN cells from CASQ2-D307H KI mice; assay: Spontaneous APs and DADs of isolated SAN cells from CASQ2 D307H KI mice; type: cell-based, mouse; conditions: 50 nM isoproterenol, after 1-2 minutes
Protocol: as §1
The same solution, supplemented with 1 mg/ml albumin, 200 μM CaCl2, collagenase Type I (Worthington) or liberase TH (Roche), protease (Sigma) and elastase (Sigma) was used for enzymatic digestion as previously described [See, Mesirca, P., et al. Nat Commun 5, 4664 (2014)]. In this step, the tissue was gently resuspended with a polished Pasteur pipette in this solution for 9-13 minutes at 37° C. SAN samples were then washed three times in a modified “Kraftbrühe” solution, containing (in mM): 70 glutamic acid, 80 KOH, 20 KCl, 10 γ-Hydroxybutyric acid sodium salt, 10 KH2PO4, 10 HEPES-KOH, 10 taurine, 1 mg/ml albumin, 0.1 EGTA-KOH (pH 7.2). […] Cells were then gradually exposed to increasing concentrations of calcium, following a “Ca^2+ readaptation” protocol [Mesirca et al., 2014, supra]. […]
FIG. 5F (Left) presents representative traces of spontaneous APs recorded in single SAN cell from CASQ2 D307H KI mice. […]

normal hiPSC-CMs = assay: Spontaneous APs in hiPS-CMs derived from normal individuals; type: cell-based, human; conditions: 3 μM isoproterenol
Protocol: as §2
FIG. 4E (Left) presents representative traces of spontaneous APs recorded in hiPS-CM derived from a normal individual. […] FIG. 4E (Right) are bar graphs presenting data summary of pacing rate (normalized to Ctrl; one-way ANOVA **P=0.0071, n=14), DD slope (paired t-test, ***P<0.0001, n=14) and APD50 (one-way ANOVA *P=0.0243, n=18).

CPVT2 hiPSC-CMs = assay: Spontaneous APs and DADs in hiPS-CMs derived from CPVT2 (CASQ2 D307H) patients; type: cell-based, human; conditions: 3 μM isoproterenol
Protocol: as §2
FIG. 4F (Left) presents representative traces of spontaneous APs recorded in hiPS-CM derived from a CPVT2 (CASQ2 D307H) patients. From a regular pacing (black trace), DADs appeared when the cell was exposed to 3 μM isoproterenol (red trace, arrows). […] The suppression of cell 540 automaticity was reversible upon washout (blue trace). FIG. 4F (Right) present bar graphs showing data summary of pacing rate (n=17), on APD50 (n=17) and DADs (Normalized to Ctrl; one-way ANOVA***P=0.0001, n=15).

[2] = system: intact SAN tissue preparations from WT mice; assay: Spontaneous calcium transients ex vivo in intact SAN tissue from WT mice (Fluo-4 AM); type: cell-based, mouse; conditions: 100 nM isoproterenol
Protocol: (§3) SAN tissue preparations were dissected ex vivo from WT and CASQ2-D307H KI mice as described in Torrente, A. G., et al. Proc Natl Acad Sci USA 112, 9769-9774 (2015). The dissected whole SAN tissue was pinned on a hand-made chamber and was incubated in a Tyrode solution containing 10 μM Fluo-4 AM (Thermo Fisher Scientific) and pluronic acid for 1 hour at 37° C. in the dark. The SAN tissue was washed in Tyrode at 37° C. in the dark for 10 minutes before experiments. Fluorescence of calcium transients was recorded using a photomultiplier (PTi D-104) at 35° C. and the analog signals were digitized using Digidata 1440 (Molecular Devices) and analyzed with pCLAMP 10.5 software.
(§4) To investigate the spontaneous calcium transients of the SAN, intact SAN tissue preparations dissected ex vivo from WT and CASQ2-D307H KI mice were exposed to Fluo-4 AM as previously described [Torrente, A. G., et al. Proc Natl Acad Sci USA 112, 9769-9774 (2015)].
FIG. 6A (Left) presents representative traces of spontaneous calcium transients recorded ex vivo in intact SAN tissue preparations from WT mice. […] Right: data summary of calcium transient rate (one-way-ANOVA***P=0.0003; n=12).

[3] = system: intact SAN from CASQ2 D307H KI mice; assay: Spontaneous calcium transients ex vivo in intact SAN tissue from CASQ2-D307H KI mice (Fluo-4 AM); type: cell-based, mouse; conditions: 100 nM isoproterenol
Protocol: as §3, §4
FIG. 6B presents representative traces of different types of calcium transient abnormalities recorded in intact SAN from CASQ2 D307H KI mice, termed as “local Ca^2+ release” (upper left), “double humped transients” (upper right), “large-stored released Ca^2+ waves” (lower left) and “calcium alternans” (lower right).
FIG. 6C presents representative trace of spontaneous calcium transients recorded from intact SAN of CASQ2 D307H KI. The baseline rate of calcium transients (control, black trace) yielded chaotic calcium transients (red trace) following incubation of the SAN with 100 nM isoproterenol.

CC(C)NCC(O)c1ccc(O)c(O)c1 (centres unmarked) [Isoproterenol]
pacing of SAN cells (SAN cells): significantly increased the pacing
DADs [1]: led to DADs
APD50 (normal hiPSC-CMs): reduced their APD50
firing rate (normal hiPSC-CMs): significantly increased their firing rate
DADs (CPVT2 hiPSC-CMs): triggered DADs
chronotropic effect (CPVT2 hiPSC-CMs): did not produce positive chronotropic effect
rate of calcium transients [2]: significantly increased
Ca2+ transient abnormalities [3]: produced various Ca^2+ transient abnormalities
